Reference: patent publication US20240240208A1, “COMPOSITIONS AND METHODS FOR INCREASING EFFICIENCY OF PRECISE EDITING REPAIR” (New York Genome Center, Inc., priority 2021, published 2024)

What was measured:
HEK293 DNA-PK KO cells [1] = experiment: HDR levels by GFP-to-BFP conversion assay in DNA-PK KO cells clone 22 treated with small molecule inhibitors; type: cell-based, human; conditions: for HDR levels (% of BFP+ cells over DMSO): 1 μM inhibitor added with Cas9, guide RNA and ssDNA encoding BFP, DNA-PK KO cells clone 22, drugs washed off 24 hours later; for BFP+ increase over DMSO (dose dependent effect on HDR): 10, 5, 1, 0.5, 0.1 and 0.01 μM, DNA-PK KO cells, 24 hours after drug treatment
Method: Eighteen targets were targeted with 38 drugs. […] Small molecule inhibitors were added in the media simultaneously with the introduction of Cas9, guide RNA and single-stranded DNA (ssDNA) encoding BFP. HDR levels were measured with the BFP-to-GFP assay. […] Precise repair levels are shown as a % of BFP+ cells over DMSO.
DNA-PK KO cells were tested with the noted compounds at compounds at 10 μM, 5 μM, 1 μM, 0.5 μM, 0.1 μM, and 0.01 μM, as for FIGS. 4 and 6. HDR levels are shown as a % of BFP+ cells over DMSO 24 hours after drug treatment.
(§1) To study the efficiency of HDR in human cells we used the green fluorescent protein (GFP) to blue fluorescent protein (BFP) pair, where conversion from GFP to BFP requires editing of 2 nucleotides. The CRISPR screens were performed on a K562 human cell line stably expressing a green fluorescent protein (GFP). GFP was targeted with Cas9, guide RNA targeting GFP, and a single stranded DNA (ssDNA) encoding BFP. Efficiency of HDR in cells carrying specific genetic perturbations (genetic inhibition or activation) were identified using fluorescence-activated cell sorting (FACS), followed by guide RNA recovery and quantification using next-generation sequencing (NGS).
The small molecules were tested on DNA-PK knockout HET293 cells at concentrations of 10 μM or 1 μM. Eighteen targets were targeted with 38 drugs. […] Drug validations were performed in DNA-PK KO cells clone 22 treated with dimethyl sulfoxide (DMSO) or 1 or 10 μM of the indicated inhibitors. HDR levels were measured with the BFP-to-GFP assay. Small molecule inhibitors were added in the media simultaneously with the introduction of Cas9, guide RNA and single-stranded DNA (ssDNA) encoding BFP. The drugs were washed off 24 hours later.
The compounds shown in FIG. 6 were further tested for dose dependent effects. The same cells as described above were treated with the noted compounds at compounds at 10 μM, 5 μM, 1 μM, 0.5 μM, 0.1 μM, and 0.01 μM. HDR levels are shown as a % of BFP+ cells over DMSO 24 hours after drug treatment (FIG. 7).

HEK293 DNA-PK KO cells [2] = experiment: MTT cytotoxicity assay after 24 hours drug treatment; type: cell-based, human; conditions: 10, 5, 1, 0.5, 0.1 and 0.01 μM
Method: FIG. 8 is a heat plot showing cytotoxicity after drug treatment. HEK293 DNA-PK KO cells were treated with the noted compounds at 10 μM, 5 μM, 1 μM, 0.5 μM, 0.1 μM, and 0.01 μM in triplicate. After 24 hours an MTT assay was performed.
The same compounds were also tested for cytotoxicity at 10 μM, 5 μM, 1 μM, 0.5 μM, 0.1 μM, and 0.01 μM.

[3] = system: RFC5, TUBA1B, NEDD8, LIG4, POLQ and RAD51 knock-out lines; experiment: HDR levels by cell sorting in gene knock out cell lines treated with DNA-PK inhibitor; type: cell-based, human; conditions: 2 μM DNA-PK inhibitor in RFC5, TUBA1B
Method: Knock out cell lines of the indicated genes were treated with 2 μM of DNA-PK inhibitor. HDR levels were determined by cell sorting.
The inventors identified regulators of homologous directed repair (HDR) that synergize with inhibition of non-homologous end-joining (NHEJ) and further increase HDR levels in human cells. The inventors targeted all of the 20,000 genes in the human genome using a pair of CRISPR-based screens to identify genes that, upon loss (knock-out) or gain (overexpression), increase precise gene repair. Using a CRISPR inhibition screen, a ranked list of the effect of loss of every human gene on precise gene repair. In a CRISPR activation screen, we produced a ranked list of the effect of gain of every human gene on precise gene repair. Combinatorial effects of multiple gene/drug perturbations on boosting precise gene repair were also examined. […]
as §1, with “The CRISPR screens were performed on a K562 human cell line stably expressing a green fluorescent protein (GFP). GFP was targeted with Cas9, guide RNA targeting GFP, and a single stranded DNA (ssDNA) encoding BFP.” left out
HDR levels were determined by cell sorting.

[4] = system: human K562 PRKDC−/− cells; experiment: Precise repair (% BFP conversion) after SpCas9 RNP, EGFP-targeting sgRNA and EBFP ssODN nucleofection; type: cell-based; conditions: 1 μM, DMSO control 56%
Method: To investigate the effect of combinatorial inhibition using a DNA-PK inhibitor and another inhibitor on HDR gene editing rates, human K562 PRKDC−/− cells (a DNA Knock Out cell line) were nucleofected with SpCas9 RNPs with an EGFP-targeting sgRNA and EBFP ssODN and then incubated with 1 μM (micro molar) concentration ST1926 (an inhibitor of POLA1) or DMSO treated (control). Gene editing rates are expressed in percentages and classified as % precise repair (% BFP conversion). The combination of ST1926 treatment in PRKDC-null human cells boosted precise editing from 56% to 73%.

Compound | HDR levels (% of BFP+ cells over DMSO) (HEK293 DNA-PK KO cells [1]) | other results
C=CC(=O)Nc1ccc(C(=O)Nc2n[nH]c3c2CN(C(=O)N[C@H](CN(C)C)c2ccccc2)C3(C)C)cc1 [YKL-5-124] | increased HDR levels | –
COC(=O)[C@H](CCSC)NC(=O)c1ccc(NC[C@@H](N)CS)cc1-c1ccccc1.Cl [FTI 277 HCl] | increased HDR levels | –
Cc1cc2c(C(N)=O)cccc2n1-c1nc2c(c(NCc3ccccc3)n1)COCC2 [CB-5083] | increased HDR levels | –
NC(=O)/C(=C/n1cnc(-c2cc(C(F)(F)F)cc(C(F)(F)F)c2)n1)c1cncnc1 [Eltanexor (KPT-8602), Eltanexor] | increased HDR levels | –
N#Cc1ccc(COC[C@H]2O[C@@H](n3c(NCc4ccc(Cl)c(Cl)c4)nc4c(N)ncnc43)[C@H](O)[C@@H]2O)cc1 [VER155008] | increased HDR levels | –
Cc1nc(Nc2n[nH]c3c2CN(C(=O)N[C@H](CN(C)C)c2ccccc2)C3(C)C)c2sccc2n1 [PF-3758309] | increased HDR levels | –
Cc1cc(OCc2nnc(SC3CCCC3)n2-c2cccnc2)ccc1-c1ccc(S(C)(=O)=O)cc1 [NMS-873] | increased HDR levels | –
CC(=O)Nc1nc(-c2cccc(NS(=O)(=O)c3cccc4c(N(C)C)cccc34)c2)cs1 [HA15] | increased HDR levels | –
COc1ccc(CCNCc2ccc(OCc3ccc(Cl)nc3)c(OC)c2)cc1OC.Cl [SBE 13 HCl] | – | BFP+ increase over DMSO (dose dependent effect on HDR) (HEK293 DNA-PK KO cells [1]): dose-dependent increase in HDR; cytotoxicity over DMSO (MTT, viable cells) (HEK293 DNA-PK KO cells [2]): low toxicity
O=c1cc(N2CCOCC2)oc2c(-c3cccc4c3sc3ccccc34)cccc12 [NU7441] | – | HDR levels [3]: significant increase in the HDR levels
COc1cc(-c2cn(C)c(=O)c3cnccc23)cc(OC)c1CN(C)C [BI-7273] | increased HDR levels | –
O=C(/C=C\n1cnc(-c2cc(C(F)(F)F)cc(C(F)(F)F)c2)n1)N1CC(F)(F)C1 [KPT-276] | increased HDR levels | BFP+ increase over DMSO (dose dependent effect on HDR) (HEK293 DNA-PK KO cells [1]): promote HDR at low concentration; cytotoxicity over DMSO (MTT, viable cells) (HEK293 DNA-PK KO cells [2]): toxic at high concentration
Nc1ncnc2c1c(COc1cccc(Cl)c1)nn2C1CCOCC1 [PF 4800567] | increased HDR levels | –
Nc1nccc(-c2c(-c3ccc(F)cc3)ncn2C2CCCCC2)n1 [PF-670462] | increased HDR levels | –
c1ccc(CNc2nc(NCc3ccccc3)c3ccccc3n2)cc1 [DBeQ] | increased HDR levels | –
O=C(O)c1ccc2cc(-c3ccc(O)c(C45CC6CC(CC(C6)C4)C5)c3)ccc2c1 [CD437] | increased HDR levels | –
O=C(O)Cn1c2c(c3cc(F)ccc31)CN(C(=O)c1cccc3ccccc13)CC2 [Setipiprant] | increased HDR levels | –
Cc1ncc(CCCN(C)C)cc1Nc1ncc2c(n1)-c1ccc(C(F)(F)F)cc1NC(=S)C2 [MLN0905] | increased HDR levels | –
COc1cc(Nc2ncc3c(n2)-c2ccc(Cl)cc2C(c2c(F)cccc2OC)=NC3)ccc1C(=O)O [Alisertib] | increased HDR levels | –
O=C(O)/C=C/c1ccc(-c2ccc(O)c(C34CC5CC(CC(C5)C3)C4)c2)cc1 [ST1926] | increased HDR levels | % precise repair (% BFP conversion) [4]: 73%
CCn1cc(-c2cccc(C(F)(F)F)c2)c2sc(C(=N)NC3CCS(=O)(=O)CC3)cc2c1=O [I-BRD9] | increased HDR levels | –
CO[C@@H]1[C@@H](OC(N)=O)[C@@H](O)[C@H](Oc2ccc3c(O)c(NC(=O)c4ccc(O)c(CC=C(C)C)c4)c(=O)oc3c2C)OC1(C)C [Novobiocin] | increased HDR levels | –
